# Literature values in PMC5742115, “Pharmacophore Modeling and in Silico/in Vitro Screening for Human Cytochrome P450 11B1 and Cytochrome P450 11B2 Inhibitors” (Frontiers in Chemistry, 2017).
# Read-outs that look alike come from different tables or passages of the source.
# Legend:
# [1] = tested on: CYP11B1; details: reported activity, supplementary Table 1, read-out: CYP11B1 IC50, cited from earlier work
# [2] = tested on: CYP11B2; details: reported activity, supplementary Table 1, read-out: CYP11B2 IC50, cited from earlier work
Compound,"IC50 ([1]; ref Lucas et al., 2011)","IC50 ([2]; ref Lucas et al., 2011)",also measured
c1cn(CC23CC4CC(CC(C4)C2)C3)cn1 [CHEMBL1651505],–,–,"IC50 ([1]; ref Hille et al., 2011b): 5 nM; IC50 ([2]; ref Hille et al., 2011b): 30 nM"
c1ccc(C(c2ccccc2)(c2ccccc2)n2ccnc2)cc1 [CHEMBL1651507],–,–,"IC50 ([1]; ref Hille et al., 2011b): 3 nM; IC50 ([2]; ref Hille et al., 2011b): 11 nM"
c1ccc(C(Cn2ccnc2)(c2ccccc2)c2ccccc2)cc1 [CHEMBL1651508],–,–,"IC50 ([1]; ref Hille et al., 2011b): 4 nM; IC50 ([2]; ref Hille et al., 2011b): 8 nM"
c1ccc(C(CCn2ccnc2)(c2ccccc2)c2ccccc2)cc1 [CHEMBL1651509],–,–,"IC50 ([1]; ref Hille et al., 2011b): 80 nM; IC50 ([2]; ref Hille et al., 2011b): 290 nM"
c1ccc(-c2ccc(Cn3ccnc3)o2)cc1 [CHEMBL1651513],–,–,"IC50 ([1]; ref Hille et al., 2011b): 46 nM; IC50 ([2]; ref Hille et al., 2011b): 372 nM"
c1ccc(-c2ccc(Cn3ccnc3)s2)cc1 [CHEMBL1651514],–,–,"IC50 ([1]; ref Hille et al., 2011b): 43 nM; IC50 ([2]; ref Hille et al., 2011b): 353 nM"
O=C1CCc2cc(-c3cccnc3)cc3c2N1CC3 [CHEMBL1765205],715 nM,1.1 nM,–
O=C1CCc2cc(-c3cccnc3)cc3c2N1CCC3 [CHEMBL1765206],2300 nM,2.4 nM,–
COc1cncc(-c2cc3c4c(c2)CCN4C(=O)CC3)c1 [CHEMBL1765207],247 nM,0.6 nM,–
COc1cncc(-c2cc3c4c(c2)CCC(=O)N4CCC3)c1 [CHEMBL1765208],545 nM,0.9 nM,–
CCOc1cncc(-c2cc3c4c(c2)CCN4C(=O)CC3)c1 [CHEMBL1765209],158 nM,1 nM,–
CC(C)Oc1cncc(-c2cc3c4c(c2)CCN4C(=O)CC3)c1 [CHEMBL1765210],103 nM,2.2 nM,–
O=C1CCc2cc(-c3cncc(O)c3)cc3c2N1CC3 [CHEMBL1765211],2040 nM,4.3 nM,–
O=C1CCc2cc(-c3cncc(F)c3)cc3c2N1CC3 [CHEMBL1765212],1290 nM,4.4 nM,–
O=C1CCc2cc(-c3cncc(C(F)(F)F)c3)cc3c2N1CC3 [CHEMBL1765213],141 nM,5.9 nM,–
O=C1CCc2cc(-c3cncc4ccccc34)cc3c2N1CC3 [CHEMBL1765214],13 nM,0.2 nM,–
O=C1CCc2cc(-c3cncc4ccccc34)cc3c2N1CCC3 [CHEMBL1765215],34 nM,0.2 nM,–

Compound,"IC50 ([1]; ref Lucas et al., 2011)","IC50 ([2]; ref Lucas et al., 2011)",also measured
O=C1CCc2cc(-c3cncnc3)cc3c2N1CC3 [CHEMBL1765217],28500 nM,56 nM,–
O=C1CCc2cc(-n3ccnc3)cc3c2N1CC3 [CHEMBL1765218],2080 nM,89 nM,–
O=C1CCc2cc(-c3cncc(-c4ccccc4)c3)cc3c2N1CC3 [CHEMBL1765219],58 nM,1.3 nM,–
O=C1CCc2cc(-c3cncc(-c4ccccc4F)c3)cc3c2N1CC3 [CHEMBL1765220],43 nM,0.7 nM,–
O=C1CCc2cc(-c3cncc(-c4cccc(F)c4)c3)cc3c2N1CC3 [CHEMBL1765221],490 nM,1.4 nM,–
O=C1CCc2cc(-c3cncc(-c4ccc(F)cc4)c3)cc3c2N1CC3 [CHEMBL1765222],40 nM,0.9 nM,–
O=C1CCc2cc(-c3cncc(-c4cc(F)ccc4F)c3)cc3c2N1CC3 [CHEMBL1765223],183 nM,3.6 nM,–
O=C1CCc2cc(-c3cncc(-c4ccc(F)c(F)c4)c3)cc3c2N1CC3 [CHEMBL1765224],496 nM,2.3 nM,–
O=C1CCc2cc(-c3cncc(-c4cc(F)cc(F)c4)c3)cc3c2N1CC3 [CHEMBL1765225],1750 nM,18 nM,–
COc1ccccc1-c1cncc(-c2cc3c4c(c2)CCN4C(=O)CC3)c1 [CHEMBL1765226],128 nM,2.4 nM,–
COc1cccc(-c2cncc(-c3cc4c5c(c3)CCN5C(=O)CC4)c2)c1 [CHEMBL1765227],1370 nM,4.6 nM,–
COc1ccc(-c2cncc(-c3cc4c5c(c3)CCN5C(=O)CC4)c2)cc1 [CHEMBL1765228],21 nM,1.4 nM,–
O=C1CCc2cc(-c3cncc(-c4cccc(O)c4)c3)cc3c2N1CC3 [CHEMBL1765229],44 nM,1.2 nM,–
O=C1CCc2cc(-c3cncc(-c4cccc(OC(F)(F)F)c4)c3)cc3c2N1CC3 [CHEMBL1765230],2060 nM,16 nM,–
O=C1CCc2cc(-c3cncc(-c4cccc(C(F)(F)F)c4)c3)cc3c2N1CC3 [CHEMBL1765231],4650 nM,33 nM,–
S=C1CCc2cc(-c3cccnc3)cc3c2N1CC3 [CHEMBL1765232],333 nM,1.2 nM,–
Brc1ncccc1Cn1ccnc1 [CHEMBL2011242],–,–,"IC50 ([1]; ref Hille et al., 2011a): 61 nM; IC50 ([2]; ref Hille et al., 2011a): 911 nM"
